Values quoted from earlier work as cited in paper PMC8468386, “Rapid Identification of Potential Drug Candidates from Multi-Million Compounds’ Repositories. Combination of 2D Similarity Search with 3D Ligand/Structure Based Methods and In Vitro Screening” (Molecules, 2021).

Test system: PDE5
Set-up: method as in PMID 21947759
Settings: PDE5 inhibitor first round hit compounds

Point of comparison: `Cn1c(=O)c2c(nc(Oc3cccc(C=NO)c3)n2Cc2ccccc2Cl)n(C)c1=O` [compound 2], IC50 1990 nM. Against it:
- CCc1ccccc1OCc1nc2ccc(S(=O)(=O)N3CCOCC3)cc2[nH]1 [compound 1] — 1.8-fold higher, 3650 nM
- COC(=O)c1sccc1NC(=O)N1CCc2c([nH]c3ccccc23)C1c1ccc(OC)cc1 (stereo not drawn) [compound 4] — 10-fold lower, 190 nM
- COc1ccc(C2c3c(n(C)c4ccccc34)C(=O)N2CC(=O)N2CCN(c3ncccn3)CC2)cc1 (stereo not drawn) [compound 5] — 3.4-fold higher, 6740 nM

Test system: Complement Component C1s
Set-up: method as in PMID 31600984
Settings: C1s inhibitors

Point of comparison: `Cc1sc2nc(-c3ccco3)oc(=O)c2c1C` [#17], IC50 549 nM. Against it:
- O=c1nc(-c2cccs2)oc2cc(Cl)ccc12 [#21] — 2.3-fold lower, 241 nM
